Experiments:
[1] = molecular target: factor Xa; assay: Inhibition of factor Xa amidase activity, chromogenic substrate (Kass); type: biochemical, human; settings: average of 3 assays; read-out: Kass, inhibitor of factor Xa (converted)
[2] = tested on: rabbit AV shunt model; assay: Arterio-venous (AV) shunt model in the rabbit; type: in vivo; settings: i.v. infusion
Text: Arterio-Venous (AV) Shunt Model in the Rabbit
Efficacy and potency of a compound are studied in a model of thrombosis in the anesthetized rabbit in which blood is shunted from the carotid artery through tubing to the left jugular vein. The shunt houses a thread upon which thrombotic material is deposited and is quantified in the presence and absence of a test compound. Specifically, the left jugular vein and right carotid artery are cannulated (PE 200 tubing, 22 cm). The tip of the arterial tubing is advanced approximately 1 cm and the tip of the venous tubing is advanced approximately 1 cm. The arterial and venous shunt segments are friction fitted into a center section of larger tubing (PE 260, 6 cm) with 4 strands of cotton thread (5.5 cm each), knotted together with a single knot at the end, in the lumen. Blood is circulated through the shunt for 15 min. The arterial and venous segments are clamped, the center section is detached, held vertically and the thread is carefully removed and weighed. The weight of a wet thread (38 mg, average of 10-4-stranded identical lengths) is subtracted from the total weight of the thread and thrombus. A drug is infused through a second catheter in the right jugular vein (2 cm inside vessel) starting 15 min before and throughout the 15 min period of blood circulation through the shunt. […]

[3] = molecular target: human thrombin; assay: Inhibition of thrombin amidase activity, chromogenic substrate (Kass); type: biochemical; settings: average of 3 assays; read-out: Kass, inhibitor of thrombin (converted)
Method: For example, thrombin hydrolyzes N-benzoyl-L-phenylalanyl-L-valyl-L-arginyl-p-nitroanilide, N-benzoyl-L-Phe-L-Val-L-Arg-p-nitroanilide.
The assay is carried out by mixing 50 μL buffer (0.03M Tris, 0.15M NaCl, pH 7.4) with 25 μL of human thrombin solution (purified human thrombin, Enzyme Research Laboratories, South Bend, Indiana, at 8 NIH units/mL) and 25 μL of test compound in a solvent (50% aqueous methanol (v:v)). Then 150 μL of an aqueous solution of the chromogenic substate (at 0.25 mg/mL) are added and the rates of hydrolysis of the substrate are measured by monitoring the reactions at 405 nm for the release of p-nitroaniline. Standard curves are constructed by plotting free thrombin concentration against hydrolysis rate. The hydrolysis rates observed with test compounds are then converted to "free thrombin" values in the respective assays by use of the standard curves. The bound thrombin (bound to test compound) is calculated by subtracting the amount of free thrombin observed in each assay from the known initial amount of thrombin used in the assay. The amount of free inhibitor in each assay is calculated by subtracting the number of moles of bound thrombin from the number of moles of added inhibitor (test compound). […]
Kass is calculated for a range of concentrations of test compounds and the mean value reported in units of liter per mole.

## N=C(N)NCCCC(NC(=O)[C@@H]1CCCN1C(=O)[C@@H]1NCC[C@H]2CCCC[C@H]21)C(=O)c1nc2ccccc2s1 (mixture of isomers) [DL-Arg-Ia, (1R,4aR,8aR)-Perhydroisoquinolin-1-ylcarbonyl-N-[(1RS)-4-[(aminoiminomethyl)amino]-1-(benzothiazol-2-ylcarbonyl)-butyl]-L-prolinamide. 1.5 H2 SO4]
[1]
  Kd: 3.32 nM
[2]
  ED50% (infusion dose to reduce thrombus weight by 50%): 0.008 mg/kg/h
[3]
  Kd: 2.84 nM

— patent publication US6214841A, “Antithrombotic compound” (Eli Lilly and Company, priority 1999, dated 2001)
